Source: ChEMBL document CHEMBL1201862, “PubChem BioAssay data set” (2004)
Calls of active or inactive are those of the source.

Columns and labels:
[1] = target: T1, Cytochrome P450 1A2 (Homo sapiens, UniProt P05177);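 further: PubChem cytochrome P450 panel assay, CYP1A2 panel member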
T1 sequence (P05177 whole entry): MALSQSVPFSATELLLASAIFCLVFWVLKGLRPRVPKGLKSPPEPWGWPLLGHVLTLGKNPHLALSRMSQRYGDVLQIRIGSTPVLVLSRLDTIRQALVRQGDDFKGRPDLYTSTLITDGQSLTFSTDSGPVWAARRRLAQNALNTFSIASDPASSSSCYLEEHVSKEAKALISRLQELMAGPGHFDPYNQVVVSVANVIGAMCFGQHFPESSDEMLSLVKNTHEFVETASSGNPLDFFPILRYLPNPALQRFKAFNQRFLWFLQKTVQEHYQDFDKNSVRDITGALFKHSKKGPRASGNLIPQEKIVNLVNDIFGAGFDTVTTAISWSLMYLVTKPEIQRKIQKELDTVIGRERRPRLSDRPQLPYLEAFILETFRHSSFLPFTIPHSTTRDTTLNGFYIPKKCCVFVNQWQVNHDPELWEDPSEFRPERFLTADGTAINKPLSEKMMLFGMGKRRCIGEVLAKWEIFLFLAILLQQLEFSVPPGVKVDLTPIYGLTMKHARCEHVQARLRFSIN

[2] = target: Cytochrome P450 2D6 (Homo sapiens, UniProt P10635);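 further: CYP2D6 member of a cytochrome P450 panel assay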
[3] = target: Intestinal-type alkaline phosphatase (Homo sapiens, UniProt P09923); experiment: human intestinal alkaline phosphatase activators, dose response, biochemical, luminescence, uHTS hits (AID 463120); type: functional
[4] = target: Cytochrome P450 2C19 (Homo sapiens, UniProt P33261); experiment: Cytochrome panel assay with activity outcomes. Panel member name: p450-cyp2c19 Compounds with AC50 equal or less than 10 uM are considered active; type: functional
[5] = target: T2, G-protein coupled receptor 55 (Homo sapiens, UniProt Q9Y2T6); experiment: SAR Analysis of Selective Antagonists of GPR55 using an Image-Based Assay - Set 4. [Related pubchem assays (depositor defined):AID2013, AID2026]; type: functional
[6] = target: T3, G-protein coupled receptor 35 (Homo sapiens, UniProt Q9HC97); experiment: SAR analysis of Antagonists of the GPR35 Receptor using an Image-Based Assay - Set 6. [Related pubchem assays (depositor defined):AID2013, AID2026]; type: functional
[7] = target: T4, Cannabinoid receptor 1 (Homo sapiens, UniProt P21554); experiment: SAR analysis of antagonists of the Cannabinoid Receptor 1 using an Image-Based Assay - Set 4. [Related pubchem assays (depositor defined):AID2013, AID2026]; type: functional
[8] = target: T5, Cannabinoid receptor 2 (Homo sapiens, UniProt P34972); experiment: SAR analysis of agonists of the Cannabinoid Receptor 2 using an Image-Based Assay - Set 3. [Related pubchem assays (depositor defined):AID2013, AID2026]; type: functional
[9] = target: T4, Cannabinoid receptor 1; experiment: SAR analysis of agonists of the Cannabinoid Receptor 1 using an Image-Based Assay - Set 4. [Related pubchem assays (depositor defined):AID2013, AID2026]; type: functional
[10] = target: T3, G-protein coupled receptor 35; experiment: SAR analysis of Agonists of the GPR35 Receptor using an Image-Based Assay - Set 4. [Related pubchem assays (depositor defined):AID2013, AID2026]; type: functional
[11] = target: T5, Cannabinoid receptor 2; experiment: SAR analysis of antagonists of the Cannabinoid Receptor 2 using an Image-Based Assay - Set 3. [Related pubchem assays (depositor defined):AID2013, AID2026]; type: functional
[12] = target: Voltage-dependent T-type calcium channel subunit alpha-1H (Homo sapiens, UniProt O95180); experiment: human CACNA1H calcium influx blockade – cell-based, synthetic library set 2, HEK293 HH8, Fluo-4, SAR follow-up (AID 493023); type: functional
[13] = Vero E6 cell cytotoxicity, dose response, cytotoxicity control for non-replicating M. tuberculosis project, secondary assay (AID 492998); type: functional, VeroE6; settings: Vero C1008
[14] = THP-1 cell cytotoxicity, dose response, cytotoxicity control for non-replicating M. tuberculosis project (AID 489025); type: functional
[15] = cells; type: functional
[16] = target: T5, Cannabinoid receptor 2; experiment: SAR analysis of agonists of the Cannabinoid Receptor 2 using an Image-Based Assay. [Related pubchem assays (depositor defined):AID2013, AID2026]; type: functional
[17] = target: T5, Cannabinoid receptor 2; experiment: SAR analysis of antagonists of the Cannabinoid Receptor 2 using an Image-Based Assay. [Related pubchem assays (depositor defined):AID2013, AID2026]; type: functional
[18] = target: T6, Microphthalmia-associated transcription factor (Homo sapiens, UniProt O75030); experiment: reducers of TRPM1 reporter luminescence, concentration series – cell-based, SK-MEL-5, cherry-picked, set 3, MITF inhibitor project, dose response (AID 493073); type: functional;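 further: SK-MEL-5 melanoma cells with luciferase driven by the MITF target TRPM1 promoter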
T6 sequence (O75030 whole entry): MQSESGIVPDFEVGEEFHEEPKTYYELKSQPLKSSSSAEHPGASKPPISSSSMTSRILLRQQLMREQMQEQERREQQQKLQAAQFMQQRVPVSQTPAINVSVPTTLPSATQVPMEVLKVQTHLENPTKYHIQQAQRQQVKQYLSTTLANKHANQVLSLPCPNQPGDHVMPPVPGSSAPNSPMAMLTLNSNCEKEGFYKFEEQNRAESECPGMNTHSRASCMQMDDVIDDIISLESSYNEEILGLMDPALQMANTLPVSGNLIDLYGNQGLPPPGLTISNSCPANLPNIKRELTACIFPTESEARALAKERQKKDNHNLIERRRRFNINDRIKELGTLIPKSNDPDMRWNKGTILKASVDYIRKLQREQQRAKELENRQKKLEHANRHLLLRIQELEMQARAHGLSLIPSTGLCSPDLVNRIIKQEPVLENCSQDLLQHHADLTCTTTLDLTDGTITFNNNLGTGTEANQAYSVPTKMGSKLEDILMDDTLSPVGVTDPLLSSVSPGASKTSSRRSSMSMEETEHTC

[19] = target: T2, G-protein coupled receptor 55; experiment: inhibition of LPI-stimulated GPR55 beta-arrestin translocation – imaging, U2OS, beta-arrestin-GFP, LPI agonist, primary screen (AID 2013); type: functional;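 further: antagonist potency measured as reduced agonist-driven arrestin aggregation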
[20] = target: T2, G-protein coupled receptor 55; experiment: blockade of LPI-induced GPR55 arrestin translocation – imaging, U2OS, beta-arrestin-GFP, LPI agonist, set 2, SAR follow-up (AID 2820); type: functional
[21] = target: T4, Cannabinoid receptor 1; experiment: SAR analysis of agonists of the Cannabinoid Receptor 1 using an Image-Based Assay - Set 2. [Related pubchem assays (depositor defined):AID2013, AID2026]; type: functional
[22] = target: T3, G-protein coupled receptor 35; experiment: SAR analysis of Antagonists of the GPR35 Receptor using an Image-Based Assay - Set 3. [Related pubchem assays (depositor defined):AID2013, AID2026]; type: functional
[23] = system: A-375; experiment: MITF: Counter assay: A375 proliferation Measured in Cell-Based System Using Plate Reader - 2084-03_Inhibitor_Dose_DryPowder_Activity. [Related pubchem assays (depositor defined):AID488944]; type: functional; settings: Homo sapiens
[24] = target: T4, Cannabinoid receptor 1; experiment: SAR analysis of antagonists of the Cannabinoid Receptor 1 using an Image-Based Assay - Set 2. [Related pubchem assays (depositor defined):AID2013, AID2026]; type: functional
[25] = target: T3, G-protein coupled receptor 35; experiment: SAR analysis of Agonists of the GPR35 Receptor using an Image-Based Assay - Set 2. [Related pubchem assays (depositor defined):AID2013, AID2026]; type: functional
[26] = target: Peroxisome proliferator-activated receptor gamma/Nuclear receptor coactivator 3 (Homo sapiens, UniProt P37231); experiment: TR-FRET dose response biochemical High Throughput Screening assay for agonists of the steroid receptor coactivator 3 (SRC-3) recruitment by the peroxisome proliferator-activated receptor gamma (PPAR gamma): non-selective agonists. [Related pubchem assays: 1301 (Confirmation screen.), 1048 (Primary screen.)]; type: functional
[27] = target: Peroxisome proliferator-activated receptor gamma/Nuclear receptor coactivator 2 (Homo sapiens, UniProt P37231); experiment: (§1) TR-FRET dose response biochemical High Throughput Screening assay for agonists of the steroid receptor coactivator 2 (SRC-2) recruitment by the peroxisome proliferator-activated receptor gamma (PPAR gamma): non-selective agonists. [Related pubchem assays: 1297, 1032 ]; type: functional
[28] = target: Peroxisome proliferator-activated receptor gamma/Nuclear receptor coactivator 1 (Homo sapiens, UniProt P37231); experiment: as §1, with “1 (SRC-1)” for “2 (SRC-2)”, “assays (depositor defined):AID1300, AID1808, AID504735, AID631]” for “assays: 1297, 1032 ]”; type: protein assay
[29] = target: DNA damage-inducible transcript 3 protein (Mus musculus, UniProt P35639); type: functional, Cricetulus griseus
[30] = target: Melanocortin receptor 4 (Homo sapiens, UniProt P32245); type: functional, cell-based;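 further: Cell-based assay with luminescence read-out, confirmatory dose-response testing for agonist activity of biased ligands at MC4R; human U2OS cells with tagged receptor and beta-arrestin; potency of agonists that increase receptor coupling to beta-arrestin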
[31] = target: Beta-galactosidase (Escherichia coli, UniProt Q8VNN2); experiment: detection-enzyme interference by beta-gal modulators – biochemical, E. coli enzyme, set 3, artefact control for CCR6 antagonist project, dose response (AID 504712); type: functional
[32] = target: T7, Fatty acid synthase (Homo sapiens, UniProt P49327); experiment: inhibition of human FAS-TE enzyme activity – biochemical, kinetic fluorescence intensity, dose response (AID 624326); type: functional;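 further: rate of fluorescence rise from hydrolysis of a fluorogenic O-methyl fluorescein ester substrate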
[33] = system: Streptococcus sp. 'group A'; experiment: Streptococcus pyogenes SK(-)GAS viability under kanamycin – luminescence, BacTiterGlo, confirmation, counter-screen for streptokinase expression inhibitor project, dose response (AID 1900); type: functional, organism-based
[34] = target: fMet-Leu-Phe receptor (Homo sapiens, UniProt P21462); experiment: formyl peptide receptor binders – dose response (AID 519); type: functional
[35] = target: T8, Probable nicotinate-nucleotide adenylyltransferase (Staphylococcus aureus (strain N315), UniProt P65502); type: functional, Staphylococcus aureus subsp. aureus N315; settings: read-out: IC50_Mean;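 on IC50 Mean: confirmatory dose-response retesting of NadD inhibitor hits first found in an ultra-high-throughput screen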
[36] = system: Vero; experiment: viability of Vero cells under compound – cytotoxicity control for flavivirus capping enzyme inhibitors (AID 588742); type: functional; settings: Chlorocebus sabaeus
[37] = target: T8, Probable nicotinate-nucleotide adenylyltransferase; type: functional, Staphylococcus aureus subsp. aureus N315
[38] = target: Genome polyprotein (dengue virus type 2, UniProt P29990); experiment: flavivirus cap methylation enzyme inhibition – biochemical, confirmation dose response, primary screen (AID 588689); type: functional
[39] = target: T7, Fatty acid synthase; experiment: inhibition of human FAS-TE enzyme activity – biochemical, endpoint fluorescence intensity, uHTS hits, dose response (AID 624327); type: functional;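 further: fluorescence from hydrolysis of an O-methyl fluorescein acyl ester substrate by the enzyme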
[40] = system: Streptococcus; experiment: GAS UMAA2166 growth inhibition – luminescence, BacTiterGlo, counter-screen for streptokinase expression inhibitor project, dose response (AID 1915); type: functional, organism-based;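 further: potency for reduction of bacterial viability or growth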
[41] = target: Hexokinase (Trypanosoma brucei, UniProt Q38C41); experiment: Confirmation assay for inhibitors of Trypanosoma brucei hexokinase 1-Analogue-first series. [Related pubchem assays (depositor defined):AID1430, AID1632, AID2516, AID2560, AID2579, AID2600, AID449725, AID492951]; type: functional

T4 sequence (P21554 whole entry): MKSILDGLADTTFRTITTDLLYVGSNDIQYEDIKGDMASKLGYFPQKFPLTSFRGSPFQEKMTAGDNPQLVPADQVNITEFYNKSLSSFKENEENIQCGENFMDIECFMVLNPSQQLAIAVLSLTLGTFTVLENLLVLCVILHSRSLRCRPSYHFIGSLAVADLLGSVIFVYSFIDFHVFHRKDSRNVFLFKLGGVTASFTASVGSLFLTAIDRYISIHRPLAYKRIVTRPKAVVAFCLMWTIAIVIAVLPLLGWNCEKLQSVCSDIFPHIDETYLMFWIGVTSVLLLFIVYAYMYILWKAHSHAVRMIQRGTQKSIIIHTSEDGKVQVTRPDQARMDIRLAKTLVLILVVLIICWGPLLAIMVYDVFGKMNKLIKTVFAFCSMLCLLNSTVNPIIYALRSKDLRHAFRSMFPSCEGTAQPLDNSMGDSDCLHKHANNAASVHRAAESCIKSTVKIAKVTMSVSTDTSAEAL
T2 sequence (Q9Y2T6 whole entry): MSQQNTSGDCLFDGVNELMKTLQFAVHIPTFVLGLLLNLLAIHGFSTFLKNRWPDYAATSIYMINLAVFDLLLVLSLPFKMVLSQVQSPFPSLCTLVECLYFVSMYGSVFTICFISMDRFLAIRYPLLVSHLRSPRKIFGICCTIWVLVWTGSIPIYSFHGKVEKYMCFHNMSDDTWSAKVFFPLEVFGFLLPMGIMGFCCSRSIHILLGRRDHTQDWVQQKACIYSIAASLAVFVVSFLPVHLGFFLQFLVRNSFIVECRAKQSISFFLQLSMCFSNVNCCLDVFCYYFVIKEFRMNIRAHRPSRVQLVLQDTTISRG
T5 sequence (P34972 whole entry): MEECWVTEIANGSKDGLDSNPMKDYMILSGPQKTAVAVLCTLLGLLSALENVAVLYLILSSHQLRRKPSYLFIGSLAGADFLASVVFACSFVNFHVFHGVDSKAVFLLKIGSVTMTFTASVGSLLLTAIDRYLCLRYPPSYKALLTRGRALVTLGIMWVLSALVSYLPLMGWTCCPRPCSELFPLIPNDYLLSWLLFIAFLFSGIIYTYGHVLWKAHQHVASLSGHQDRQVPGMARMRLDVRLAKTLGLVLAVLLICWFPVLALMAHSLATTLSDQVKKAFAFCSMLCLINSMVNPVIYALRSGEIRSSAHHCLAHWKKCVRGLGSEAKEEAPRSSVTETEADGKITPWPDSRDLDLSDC
T3 sequence (Q9HC97 whole entry): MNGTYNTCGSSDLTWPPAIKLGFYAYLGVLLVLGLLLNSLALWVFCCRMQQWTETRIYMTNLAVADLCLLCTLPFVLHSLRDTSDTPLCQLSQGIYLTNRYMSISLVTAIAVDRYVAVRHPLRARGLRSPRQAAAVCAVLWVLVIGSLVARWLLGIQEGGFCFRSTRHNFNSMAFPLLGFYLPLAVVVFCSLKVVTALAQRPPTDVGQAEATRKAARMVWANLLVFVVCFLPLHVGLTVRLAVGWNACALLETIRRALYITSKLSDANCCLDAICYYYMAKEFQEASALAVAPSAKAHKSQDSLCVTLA
T8 sequence (P65502 whole entry): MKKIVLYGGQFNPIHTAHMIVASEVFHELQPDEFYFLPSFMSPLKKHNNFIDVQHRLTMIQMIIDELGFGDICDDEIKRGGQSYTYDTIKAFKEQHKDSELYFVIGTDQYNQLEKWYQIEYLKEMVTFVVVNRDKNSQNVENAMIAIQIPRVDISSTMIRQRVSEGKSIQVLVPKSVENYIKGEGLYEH
T7 sequence (P49327 whole entry): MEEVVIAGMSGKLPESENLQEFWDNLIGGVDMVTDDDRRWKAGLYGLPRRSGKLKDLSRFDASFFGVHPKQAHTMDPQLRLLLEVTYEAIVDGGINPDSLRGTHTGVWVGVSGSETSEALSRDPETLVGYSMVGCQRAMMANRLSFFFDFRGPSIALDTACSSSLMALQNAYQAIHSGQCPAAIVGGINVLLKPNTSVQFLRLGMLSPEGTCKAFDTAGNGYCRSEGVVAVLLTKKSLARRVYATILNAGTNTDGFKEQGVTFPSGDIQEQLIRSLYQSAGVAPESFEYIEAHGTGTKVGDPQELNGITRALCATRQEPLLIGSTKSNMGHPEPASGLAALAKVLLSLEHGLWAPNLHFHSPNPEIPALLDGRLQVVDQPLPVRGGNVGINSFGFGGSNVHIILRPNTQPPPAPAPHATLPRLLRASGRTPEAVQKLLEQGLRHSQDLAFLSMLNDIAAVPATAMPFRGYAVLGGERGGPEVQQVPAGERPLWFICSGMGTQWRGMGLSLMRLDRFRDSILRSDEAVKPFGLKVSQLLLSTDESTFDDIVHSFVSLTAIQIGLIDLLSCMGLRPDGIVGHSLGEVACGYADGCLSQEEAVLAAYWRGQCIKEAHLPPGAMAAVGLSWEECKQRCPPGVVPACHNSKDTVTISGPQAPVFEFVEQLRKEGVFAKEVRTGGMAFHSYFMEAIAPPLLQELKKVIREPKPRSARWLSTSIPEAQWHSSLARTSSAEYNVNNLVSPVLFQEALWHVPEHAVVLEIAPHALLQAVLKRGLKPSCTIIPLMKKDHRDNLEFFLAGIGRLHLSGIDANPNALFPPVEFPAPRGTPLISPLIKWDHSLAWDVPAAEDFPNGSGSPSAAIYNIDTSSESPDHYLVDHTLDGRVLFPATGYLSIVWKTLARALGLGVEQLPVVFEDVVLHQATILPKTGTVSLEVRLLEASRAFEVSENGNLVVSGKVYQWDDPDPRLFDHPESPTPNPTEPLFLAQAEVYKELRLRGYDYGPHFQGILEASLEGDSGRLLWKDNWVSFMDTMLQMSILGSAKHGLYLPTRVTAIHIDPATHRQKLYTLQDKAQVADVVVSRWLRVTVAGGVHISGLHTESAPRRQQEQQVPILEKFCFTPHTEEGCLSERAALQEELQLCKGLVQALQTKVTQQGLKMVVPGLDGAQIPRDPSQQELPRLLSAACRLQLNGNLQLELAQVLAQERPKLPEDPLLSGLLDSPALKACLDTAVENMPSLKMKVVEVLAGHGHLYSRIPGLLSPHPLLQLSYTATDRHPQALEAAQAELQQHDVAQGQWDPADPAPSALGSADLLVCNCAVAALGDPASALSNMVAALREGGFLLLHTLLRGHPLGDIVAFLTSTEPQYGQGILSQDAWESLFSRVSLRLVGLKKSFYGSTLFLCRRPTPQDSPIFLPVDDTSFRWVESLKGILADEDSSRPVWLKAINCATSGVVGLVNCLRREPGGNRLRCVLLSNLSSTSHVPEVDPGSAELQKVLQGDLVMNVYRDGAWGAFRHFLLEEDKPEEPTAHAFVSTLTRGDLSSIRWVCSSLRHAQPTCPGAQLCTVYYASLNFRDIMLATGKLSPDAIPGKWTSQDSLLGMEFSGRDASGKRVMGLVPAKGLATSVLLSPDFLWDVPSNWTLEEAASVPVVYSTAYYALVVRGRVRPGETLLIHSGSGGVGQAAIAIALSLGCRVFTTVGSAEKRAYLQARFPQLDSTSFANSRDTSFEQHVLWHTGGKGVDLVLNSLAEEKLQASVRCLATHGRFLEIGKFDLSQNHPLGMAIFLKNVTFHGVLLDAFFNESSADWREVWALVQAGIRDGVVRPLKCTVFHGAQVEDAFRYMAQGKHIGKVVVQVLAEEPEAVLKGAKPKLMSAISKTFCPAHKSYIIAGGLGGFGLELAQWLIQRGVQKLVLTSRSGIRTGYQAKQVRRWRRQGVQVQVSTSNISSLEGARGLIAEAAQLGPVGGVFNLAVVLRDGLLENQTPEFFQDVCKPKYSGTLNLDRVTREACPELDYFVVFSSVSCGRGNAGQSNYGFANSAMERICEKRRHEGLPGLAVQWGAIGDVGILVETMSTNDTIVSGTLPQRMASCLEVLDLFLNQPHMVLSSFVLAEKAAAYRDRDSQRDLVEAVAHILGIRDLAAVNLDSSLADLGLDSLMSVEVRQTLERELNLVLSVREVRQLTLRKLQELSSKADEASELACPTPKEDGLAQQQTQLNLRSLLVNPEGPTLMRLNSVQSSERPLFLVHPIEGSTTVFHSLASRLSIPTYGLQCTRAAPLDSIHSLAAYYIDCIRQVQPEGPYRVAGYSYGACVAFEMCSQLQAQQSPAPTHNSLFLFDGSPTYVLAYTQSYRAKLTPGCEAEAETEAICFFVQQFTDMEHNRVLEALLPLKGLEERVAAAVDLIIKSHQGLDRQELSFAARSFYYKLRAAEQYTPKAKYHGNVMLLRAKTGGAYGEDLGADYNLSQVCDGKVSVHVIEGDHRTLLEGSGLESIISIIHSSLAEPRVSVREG
fMet-Leu-Phe receptor, sequence (P21462 whole entry): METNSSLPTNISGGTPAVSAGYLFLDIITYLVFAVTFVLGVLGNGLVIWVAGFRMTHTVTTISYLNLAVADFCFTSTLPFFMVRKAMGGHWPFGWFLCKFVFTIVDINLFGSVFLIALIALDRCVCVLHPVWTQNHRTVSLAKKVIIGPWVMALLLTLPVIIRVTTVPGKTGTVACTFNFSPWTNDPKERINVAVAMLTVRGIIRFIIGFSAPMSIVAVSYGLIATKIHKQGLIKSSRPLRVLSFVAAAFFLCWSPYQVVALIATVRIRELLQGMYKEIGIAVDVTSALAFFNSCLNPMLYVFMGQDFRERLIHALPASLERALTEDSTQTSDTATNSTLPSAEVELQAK
Cytochrome P450 2D6, sequence (P10635 whole entry): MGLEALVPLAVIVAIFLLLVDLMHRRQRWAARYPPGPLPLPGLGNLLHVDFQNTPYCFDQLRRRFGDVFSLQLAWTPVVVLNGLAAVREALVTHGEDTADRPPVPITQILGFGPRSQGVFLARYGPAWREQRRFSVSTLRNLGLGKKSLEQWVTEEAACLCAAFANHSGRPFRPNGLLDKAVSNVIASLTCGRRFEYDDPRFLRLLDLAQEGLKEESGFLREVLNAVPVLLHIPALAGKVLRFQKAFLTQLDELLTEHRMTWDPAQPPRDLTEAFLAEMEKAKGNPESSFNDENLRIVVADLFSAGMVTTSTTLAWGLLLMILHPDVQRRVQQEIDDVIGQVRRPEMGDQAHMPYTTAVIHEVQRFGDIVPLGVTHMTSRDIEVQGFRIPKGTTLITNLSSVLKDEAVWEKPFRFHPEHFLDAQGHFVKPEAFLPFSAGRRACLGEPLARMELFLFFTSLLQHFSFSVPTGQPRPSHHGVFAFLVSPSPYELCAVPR

COc1ccc(C(=O)Nc2cccc3c2C(=O)NC3=O)cc1S(=O)(=O)N1CCOCC1
AC50 [1]: 1 µM (inconclusive) | AC50 [2]: inconclusive | EC50 [3]: > 100 µM (inactive) | AC50 [4]: inconclusive

Cc1ccc(-c2nnc(C)c3nn(-c4ccc(C)cc4)cc23)cc1
IC50 [5]: > 32 µM (inactive) | IC50 [6]: 15.4 µM (inactive) | IC50 [7]: 2.59 µM (active) | EC50 [8]: > 32 µM (inactive) | EC50 [9]: > 32 µM (inactive) | EC50 [10]: > 32 µM (inactive) | IC50 [11]: > 18 µM (inactive)

CC(C)(C)CCN1CCC[C@@H](NC(=O)c2cc(Cl)cc(Cl)c2)C1
EC50 [12]: 10 µM (active)

O=C(N/N=C\c1ccc(Cl)s1)C1COc2ccccc2O1 (configuration not stated)
CC50 [13]: 19.4 µM (active) | CC50 [14]: 16.3 µM (active) | IC50 [15]: 5.63 µM (active)

COc1ccc(CNCCC(c2ccc(F)cc2)c2ccc(OC)cc2)cc1 (configuration not stated)
EC50 [16]: > 32 µM (inactive) | IC50 [17]: 24.2 µM (inactive) | AC50 [18]: 9.89 µM (active) | IC50 [19]: 1.78 µM (active) | IC50 [20]: 1.69 µM (active) | EC50 [21]: > 32 µM (inactive) | IC50 [22]: > 32 µM (inactive) | AC50 [23]: 16.3 µM (active) | IC50 [24]: 2.7 µM (active) | EC50 [25]: 23.1 µM (inactive)

COc1ccc2c(c1)nc(SCC(=O)c1ccc(Br)s1)n2C
EC50 [26]: > 79.4 µM (not active) | EC50 [27]: 27.7 µM (not active) | EC50 [28]: > 79.4 µM (inactive)

COc1cc(NC(=O)COc2ccccc2[N+](=O)[O-])ccc1NC(=O)c1cccs1
AC50 [18]: 10.1 µM (active) | Absolute IC50 (CHOP) [29]: 10 µM | EC50 [30]: > 89.2 µM (inactive)

Cc1nn2c(O)cc(-c3ccc([N+](=O)[O-])cc3)nc2c1-c1ccccc1
IC50 [31]: > 66.6 µM (inactive) | IC50 [32]: 6.29 µM (active) | EC50 [33]: 0.662 µM (active) | Ki [34]: > 66.7 µM (inactive) | IC50 [35]: 30.2 µM (active) | CC50 [36]: 29.6 µM (active) | IC50 [37]: 8.02 µM (active) | IC50 [38]: 36.5 µM (active) | IC50 [39]: 11.2 µM (active) | EC50 [40]: 1.44 µM (active)

O=C1CCN(C(=O)Nc2cc(Cl)ccc2C(=O)O)CC1
IC50 [41]: > 25 µM (inactive)
